Among the test systems are A549; COLO 205; DU-145; HL-60; HOP-62; IGROV-1; K562; KM12; MOLT-4; NCI-H23; OVCAR-3; OVCAR-4; PC-3; RXF 393; SF-268; SK-MEL-28; SK-OV-3; U-251; UO-31; MDA-N.
Holding throughout (experiment): DTP human tumour cell line panel, 48 h

One may read the GI50 as the concentration that inhibits growth by half.

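Five compound concentrations were applied to cells in 96-well plates for 48 hours; endpoints were derived by simple linear interpolation of the resulting dose-response curve. Here, GI50 denotes the concentration required for 50% inhibition of growth.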 Active and inactive are the calls of the source. No stated cut-off is given here; in the data, active = GI50 up to about 1.1 µM and inactive = higher.

As for `C[N+]1(CCN=C=NC2CCCCC2)CCOCC1`, the GI50 with A549, with COLO 205, in the experiment on DU-145, in the experiment with HL-60, in the experiment with HOP-62 and in the experiment with IGROV-1 was > 100 µM (inactive) in each case. Besides, the GI50 in the experiment with K562, in the experiment on KM12, in the experiment on MOLT-4, in the experiment on NCI-H23, with OVCAR-3 and in the experiment with OVCAR-4 was > 100 µM (inactive) in each case. The GI50 in the experiment with PC-3, in the experiment on RXF 393, in the experiment with SF-268, in the experiment on SK-MEL-28, in the experiment with SK-OV-3 and with U-251 was > 100 µM (inactive) throughout. Also, the GI50 in the experiment on UO-31 was > 100 µM (inactive).

For the compound `COC(=O)NC1(NC(=O)OC)NC(=O)c2cc(OC)c(OC)cc2N1`, the GI50 with A549 was 61.8 µM (inactive); in the experiment on COLO 205, 20.2 µM (inactive); in the experiment with DU-145, 48.6 µM (inactive); in the experiment with HOP-62, 3.14 µM (inactive); in the experiment with IGROV-1 it was 32.1 µM (inactive); with K562, 34.2 µM (inactive). Further, the GI50 with KM12 was 35.8 µM (inactive); in the experiment on MDA-N it was 3.83 µM (inactive); in the experiment with NCI-H23, 50.2 µM (inactive); with OVCAR-3, 21.2 µM (inactive); in the experiment on PC-3 it was 26.1 µM (inactive); in the experiment on SF-268, 78.7 µM (inactive). Besides, the GI50 in the experiment with SK-MEL-28 was 29.3 µM (inactive); in the experiment with UO-31 it was 40 µM (inactive).

For the compound `CC(=O)O[C@H]1C(=O)[C@@]2(C)[C@H]([C@H](OC(=O)c3ccoc3)[C@]3(O)C[C@H](OC(=O)[C@H](O)[C@@H](NC(=O)c4ccccc4)c4ccccc4)C(C)=C1C3(C)C)[C@]1(OC(C)=O)CO[C@@H]1C[C@@H]2O`, the GI50 was 0.115 µM (active) in the experiment on A549; 0.0515 µM (active) with COLO 205; 0.352 µM (active) in the experiment on DU-145; 0.0107 µM (active) in the experiment on HL-60; 0.206 µM (active) with HOP-62; 0.0962 µM (active) in the experiment on IGROV-1. The GI50 in the experiment on K562 is 0.0324 µM (active); in the experiment on KM12 it was 0.0344 µM (active); with MOLT-4, 0.045 µM (active); with NCI-H23 it was > 12.5 µM (inactive); in the experiment on OVCAR-3, 0.0296 µM (active); in the experiment with OVCAR-4 it was > 12.5 µM (inactive). Besides, the GI50 in the experiment on PC-3 is 0.053 µM (active); with RXF 393 it was 0.277 µM (active); with SF-268 it was 0.0583 µM (active); in the experiment with SK-MEL-28, > 12.5 µM (inactive); with SK-OV-3, 0.0578 µM (active); in the experiment with U-251 it was 0.0811 µM (active). Moreover, the GI50 in the experiment on UO-31 was > 8.91 µM (inactive).

In the case of `Cc1cnoc1NS(=O)(=O)c1ccc(Nc2nnc(/C=C/c3c(O)ccc4ccccc34)c(=O)n2N)cc1`, the GI50 in the experiment with A549 was 35.1 µM (inactive); in the experiment with DU-145 it was 43.8 µM (inactive); in the experiment with HL-60 it was 0.74 µM (active); in the experiment with HOP-62 it was 46 µM (inactive); with IGROV-1 it was 12.8 µM (inactive); in the experiment with K562, 24.2 µM (inactive). Moreover, the GI50 was 25.4 µM (inactive) in the experiment on MDA-N; 0.658 µM (active) with MOLT-4; 7.73 µM (inactive) in the experiment with NCI-H23; 17.3 µM (inactive) with OVCAR-3; 27.9 µM (inactive) in the experiment on OVCAR-4; 24 µM (inactive) with RXF 393. Also, the GI50 in the experiment on SF-268 was 11.3 µM (inactive); in the experiment on SK-OV-3, 56.1 µM (inactive); in the experiment on UO-31 it was 28.7 µM (inactive).

As to `C=CC1ON(C)CCc2cc(OC)c(OC)cc21` (stereo not drawn), the GI50 in the experiment on A549, in the experiment with COLO 205, in the experiment with DU-145, in the experiment on HL-60, in the experiment on HOP-62 and in the experiment on IGROV-1 was > 100 µM (inactive) throughout. For the same compound, the GI50 with K562, in the experiment with KM12, with MDA-N, in the experiment with MOLT-4, in the experiment on NCI-H23 and in the experiment on OVCAR-3 was > 100 µM (inactive) in each case. In addition, the GI50 in the experiment on PC-3 was > 100 µM (inactive); in the experiment on SF-268 it was 39.6 µM (inactive); in the experiment with SK-MEL-28, > 100 µM (inactive); in the experiment with U-251, > 100 µM (inactive); in the experiment on UO-31 it was > 100 µM (inactive).

As for `O=c1[nH]c(=O)n(C2CC(O)C(CO)O2)cc1C1=NC1` (stereo not drawn), the GI50 in the experiment with A549, with COLO 205, in the experiment on DU-145, in the experiment with HOP-62, in the experiment with IGROV-1 and in the experiment on KM12 was > 100 µM (inactive) in each case. Also, the GI50 with MDA-N, in the experiment with MOLT-4, with NCI-H23, in the experiment with OVCAR-3, with OVCAR-4 and in the experiment with RXF 393 was > 100 µM (inactive) each time. Further, the GI50 with SF-268, in the experiment on SK-MEL-28, with SK-OV-3, with U-251 and in the experiment with UO-31 was > 100 µM (inactive) each time.

Consider `COc1cc2oc(=O)cc(C)c2c(OC)c1O`, for which the GI50 in the experiment with A549, in the experiment on COLO 205, in the experiment on DU-145, in the experiment on HOP-62, in the experiment with IGROV-1 and with K562 was > 100 µM (inactive) each time. In addition, the GI50 in the experiment on KM12, in the experiment with MDA-N, with MOLT-4, with NCI-H23, in the experiment on OVCAR-3 and in the experiment with OVCAR-4 was > 100 µM (inactive) in each case. Besides, the GI50 in the experiment with PC-3, in the experiment with SF-268, with SK-MEL-28, with SK-OV-3, in the experiment with U-251 and in the experiment with UO-31 was > 100 µM (inactive) in each case.

For `Cc1ccc(N/C(=C(/C(Cl)=C(Cl)Cl)[N+](=O)[O-])n2nnc3ccccc32)cc1`, the GI50 was 19.5 µM (inactive) with A549; 15.1 µM (inactive) with COLO 205; 18.2 µM (inactive) in the experiment on HOP-62; 23.6 µM (inactive) with K562; 21.2 µM (inactive) with KM12; 18.9 µM (inactive) in the experiment on MDA-N. The GI50 was 9.64 µM (inactive) in the experiment with MOLT-4; 21.5 µM (inactive) in the experiment on NCI-H23; 16.7 µM (inactive) in the experiment with OVCAR-3; 18.7 µM (inactive) with OVCAR-4; 17.5 µM (inactive) in the experiment with PC-3; 18.8 µM (inactive) in the experiment on SF-268. The GI50 with SK-MEL-28 was 17.5 µM (inactive); in the experiment on SK-OV-3, 17.1 µM (inactive); in the experiment on UO-31, 16.6 µM (inactive).

Regarding `O=c1ssc(Cl)c1Nc1c(Cl)ssc1=O`, the GI50 with A549 was 21.7 µM (inactive); in the experiment with COLO 205, 11.3 µM (inactive); with DU-145, 17.3 µM (inactive); in the experiment on HL-60 it was 7.85 µM (inactive); with HOP-62, 20.7 µM (inactive); with IGROV-1, 18.2 µM (inactive). In addition, the GI50 is 6.44 µM (inactive) in the experiment with K562; 17.3 µM (inactive) with KM12; 2.25 µM (inactive) with MOLT-4; 19.9 µM (inactive) in the experiment on NCI-H23; 20.5 µM (inactive) with OVCAR-3; 18.2 µM (inactive) with OVCAR-4. The GI50 in the experiment with PC-3 is 18.9 µM (inactive); in the experiment on RXF 393, 15 µM (inactive); in the experiment with SF-268, 23.1 µM (inactive); in the experiment with SK-MEL-28, 28.4 µM (inactive); in the experiment on SK-OV-3, 25.9 µM (inactive); in the experiment on U-251, 19.5 µM (inactive). Besides, the GI50 in the experiment on UO-31 is 14.4 µM (inactive).

`CC(=O)Oc1cc(S(=O)(=O)Nc2nc(N)n[nH]2)c(S)cc1Cl`: the GI50 with A549, with COLO 205, in the experiment with DU-145, with HL-60, with HOP-62 and with IGROV-1 was > 100 µM (inactive) throughout. The GI50 in the experiment with K562, in the experiment on KM12, in the experiment on MDA-N, with MOLT-4, in the experiment on NCI-H23 and in the experiment with OVCAR-3 was > 100 µM (inactive) each time. Also, the GI50 with OVCAR-4, in the experiment on PC-3, with SK-MEL-28, in the experiment with U-251 and in the experiment on UO-31 was > 100 µM (inactive) throughout.

For the compound `CC(C)CC(=O)NC(C(=O)NC(C(=O)NC(CC(C)C)C(O)CC(=O)NC(C)C(=O)NC(CC(C)C)C(O)CC(=O)O)C(C)C)C(C)C` (stereo not drawn), the GI50 in the experiment on A549, with COLO 205, with DU-145, in the experiment on HOP-62, with IGROV-1 and in the experiment with K562 was > 100 µM (inactive) each time. Besides, the GI50 in the experiment on KM12, with MDA-N, in the experiment with MOLT-4, in the experiment on NCI-H23, in the experiment on OVCAR-3 and in the experiment on OVCAR-4 was > 100 µM (inactive) throughout. In addition, the GI50 with PC-3, in the experiment on SF-268, in the experiment with SK-MEL-28, in the experiment on SK-OV-3, in the experiment with U-251 and in the experiment on UO-31 was > 100 µM (inactive) throughout.

The values above are taken from ChEMBL document CHEMBL1201862, “PubChem BioAssay data set” (2004).
